Experimental findings from publication PMC6891813, “Piltunines A–F from the Marine-Derived Fungus Penicillium piltunense KMM 4668” (Marine Drugs, 2019) are described below.

One may read the viability as a per cent measure of how many cells are alive, often set against a control. As usually defined, the IC50 is the concentration that inhibits the measured activity by half. Read a high IC50 as a need for much substance.

SMILES strings stand for the structures.

Data set [1] can be described thus: MTT cytotoxicity assay, PNT-2 cells. In kind it is cell-based, human. Particulars: human, PNT-2 prostate non-cancer cells, 100 µM, 72 h, read-out: Viability at 100 µM, % of Control, PNT-2 Cells. An excerpt:
(§1) We have investigated the effect of the isolated compounds 1, 1a, 2, 7–9 on the viability of human drug-resistant prostate cancer 22Rv1 cell as well as on human prostate non-cancer PNT-2 cells using an MTT assay (Table 3). We have also determined a selectivity index (SI) at for all the tested substances (Table 3). […] Note, 22Rv1 cells are known to be resistant to the hormone therapy due to the expression of androgen receptor splice variant AR-V7 [15]. Thus, the compounds which are active inAR-V7-positive 22Rv1 cells are of high clinical interest.
(§2) The human prostate cancer cells 22Rv1 and human prostate non-cancer cells PNT-2 were purchased from ATCC. Cell lines were cultured according to the manufacturers instructions in 10% FBS/RPMI media (Invitrogen). Cells were continuously kept in culture for a maximum of 3 months, and were routinely inspected microscopically for stable phenotype and regularly checked for contamination with mycoplasma. The authentity of the cells has recently been confirmed by the Multiplexion (Heidelberg, Germany) using highly polymorphic short tandem repeat loci.
(§3) The in vitro cytotoxicity of individual substances was evaluated using the MTT (3-(4,5-dimethylthiazol-2-yl)-2,5-diphenyltetrazolium bromide) assay, which was performed as previously described. The vehicle (DMSO) treated cells were used as a negative control. Treatment time was 72 h.
On the technique in general: Tetrazolium dyes change colour on reduction, which living cells bring about.

Data set [2] relates to human prostate non-cancer PNT-2 cells. Nature of the data set: MTT cytotoxicity assay, PNT-2 cells. The format is cell-based. Particulars: Homo sapiens, PNT2, 72 h treatment.
Text: as §1, §2, §3

For data set [3], the system named is human drug-resistant prostate cancer 22Rv1 cell. Put plainly: MTT cytotoxicity assay, 22Rv1 cells. In kind it is cell-based. To be noted: for viability at 100 µM / IC50: Homo sapiens, 22Rv1; for viability at 100 µM: read-out: Viability at 100 µM, % of Control, 22Rv1 Cells; for IC50: 72 h treatment; for SI (selectivity index): [viability of PNT-2 cells]/[viability of 22Rv1 cells] at 100 µM.
Text: as §1, §2, §3

In data set [4] the test system is murine peritoneal macrophages co-incubated with lipopolysaccharide (LPS). Put plainly: ROS level analysis in LPS-treated macrophages (DCF-DA fluorescence). The format is cell-based, Mice BALB/c. Particulars: 10 μM, 1 h at 37 °C, LPS co-incubation; p < 0.05. How it is done:
Figure 5 Effect of compounds on reactive oxygen species (ROS) level in murine peritoneal macrophages co-incubated with lipopolysaccharide (LPS). The compounds were tested at a concentration of 10 μM. Time of cell incubation with compounds was 1 h at 37 °C. * p < 0.05. (Student’s t-test).
The suspension of macrophages on 96-well plates (2 × 10^4 cells/well) were washed withphosphate-buffered saline (PBS) and treated with 180 µL/well of the tested compounds (10 μM) for 1 h and 20 µL/well LPS from E. coli serotype 055:В5 (Sigma-Aldrich, MA, USA, 1.0 μg/mL), which were both dissolved in PBS and cultured at 37 °C in a CO2-incubator for one hour. For the ROS levels measurement, 200 μL of 2,7-dichlorodihydrofluorescein diacetate (DCF-DA, Sigma, final concentration 10 μM) fresh solution was added to each well, and the plates were incubated for 30 min at 37 °C. The intensity of DCF-DA fluorescence was measured at λex 485 n/λem 518 nm using the plate reader PHERAstar FS (BMG Labtech, Offenburg, Germany).
Mice BALB/c were sacrificed by cervical dislocation. Peritoneal macrophages were isolated using standard procedures. For this purpose, 3 ml of PBS (pH 7.4) was injected into the peritoneal cavity and the body intensively palpated for 1–2 min. Then the peritoneal fluid was aspirated with a syringe. […]

Data set [5] concerns LPS-stimulated macrophages. Nature of the data set: NO (RNS) level analysis in LPS-treated macrophages (DAF FM-DA fluorescence). In kind it is cell-based, Mice BALB/c. To be noted: 1 μM (non-toxic concentration); p < 0.05. How it is done:
Compound 9 suppressed NO production in LPS-stimulated macrophages at non-toxic concentration of 1 μM. NO level in these cells was decreased by 24.1 ± 0.7% (p < 0.05, Student’s t-test) in comparison with LPS-treated control (data not shown). Therefore, compound 9 may be a promising candidate for the therapy of inflammatory diseases accompanying overproduction of NO.
The suspension of macrophages on 96-well plates (2 × 10^4 cells/well) were washed with the PBS and treated with 180 µL/well of the tested compounds (10 μM) for 1 h and 20 µL/well LPS from E. coli serotype 055:В5 (Sigma, 1.0 μg/mL), which were both dissolved in PBS and cultured at 37 °C in a CO2-incubator for one hour. For the RNS levels measurement, 200 μL Diaminofluorescein-FM diacetate (DAF FM-DA, Sigma, final concentration 10 μM) fresh solution was added to each well, and the plates were incubated for 40 min at 37 °C, then replace with fresh PBS, and then incubated for an additional 30 min to allow complete de-esterification of the intracellular diacetates. The intensity of DAF FM-DA fluorescence was measured at λex 485 n/λem 520 nm using the plate reader PHERAstar FS (BMG Labtech, Offenburg, Germany).
Mice BALB/c were sacrificed by cervical dislocation. Peritoneal macrophages were isolated using standard procedures. […]

Turning to `CC(CO)=C1CCC23COC(C2)C(O)(C(=O)O)CCC13` (centres unmarked) [Compound 1, Piltunine A], the viability at 72 h, 100 µM in data set [1] came out at 97.2%. The IC50 in data set [2] and in data set [3] (MTT assay) was above 100 µM in each case. The viability at 100 µM in data set [3] (72 h, MTT assay) was 65.5%. Moreover, the “SI (selectivity index)” value in data set [3] (72 h) was 1.48.
With `COC(=O)C1(O)CCC2C(=C(C)CO)CCC23COC1C3` (centres unmarked) [Compound 1a], the viability at 72 h, 100 µM in data set [1] amounted to 80.4%. Also, the IC50 in data set [2] and in data set [3] (MTT assay) was above 100 µM throughout. For the same molecule, the viability at 100 µM in data set [3] (72 h, MTT assay) stood at 62.2%. Besides, the “SI (selectivity index)” value in data set [3] (72 h) is 1.29.
Consider `CC(=O)OC/C(C)=C1\CC[C@]23CO[C@H](C2)[C@@](O)(C(=O)O)CC[C@@H]13` [Compound 2, Piltunine B], for which the viability at 72 h, 100 µM in data set [1] amounted to 82.9%. Further, the IC50 in data set [2] and in data set [3] (MTT assay) was above 100 µM each time. For the same molecule, in data set [3] (72 h, MTT assay), the viability at 100 µM was determined as 61.9%. In data set [3] (72 h), the “SI (selectivity index)” value is on record as 1.34.
`CC(=O)C1=CC[C@]23CO[C@H](C2)[C@@](O)(C(=O)O)CC[C@@H]13` [Compound 5, Piltunine E]: the “Effect on ROS production” value in data set [4] is recorded as “significant down-regulation of ROS production”.
As for `C=C(C)C1(O)CCC23COC(C2)C(O)(C(=O)O)CCC31` (centres unmarked) [Compound 7, penigrisacid D], in data set [1], the viability at 72 h, 100 µM was found to be 80.7%. The IC50 in data set [2] and in data set [3] (MTT assay) was above 100 µM throughout. Further, the viability at 100 µM in data set [3] (72 h, MTT assay) turned out to be 63.8%. Further, the “SI (selectivity index)” value in data set [3] (72 h) amounted to 1.26.
Take `C[C@H]1CCC[C@H](C[C@H]2Cc3cc(O)cc(O)c3C(=O)O2)O1` [Compound 8, cladosporin]: in data set [1], the viability at 72 h, 100 µM turned out to be 88.1%. Further, the IC50 in data set [2] was above 100 µM; in data set [3] (MTT assay) it was 71.7 ± 8.9 µM. For the same molecule, the viability at 100 µM in data set [3] (72 h, MTT assay) amounted to 38.7%. Moreover, the “Cytotoxicity in cancer cells in comparison with the other substances” value in data set [3] (MTT assay, 72 h) is given as “most cytotoxic in cancer cells”.
Turning to `CC1OC(CC2Cc3cc(O)cc(O)c3C(=O)O2)CCC1O` (centres unmarked) [Compound 9, 5’-hydroxyasperentin], the viability at 72 h, 100 µM in data set [1] worked out at 55.5%. The IC50 in data set [2] and in data set [3] (MTT assay) was above 100 µM in each case. Also, in data set [3] (72 h, MTT assay), the viability at 100 µM was 54.9%. Moreover, the “SI (selectivity index)” value in data set [3] (72 h) was determined as 1.01. The “Effect on ROS production” value in data set [4] is on record as “significant down-regulation of ROS production”. Moreover, in data set [5], the “Decrease of NO level in comparison with LPS-treated control” value worked out at 24.1 ± 0.7%.
As to `CC(=O)O[C@@]12CO[C@@H]1C[C@H](O)[C@@]1(C)C(=O)[C@H](O)C3=C(C)[C@@H](OC(=O)[C@H](O)[C@@H](NC(=O)OC(C)(C)C)c4ccccc4)C[C@@](O)([C@@H](OC(=O)c4ccccc4)[C@H]21)C3(C)C` [Docetaxel, reference compound], the IC50 in data set [2] (positive control) was 0.0847 ± 0.0206 µM; in data set [3] (MTT assay, positive control), 0.00278 ± 0.00107 µM.
